The values that follow come from US20260242336A1, “COMPOSITION FOR PREVENTING OR TREATING CANCER DISEASES COMPRISING ARYL-PIPERIDINE DERIVATIVE” (KOREA RESEARCH INSTITUTE OF CHEMICAL TECHNOLOGY, priority 2023, published 2026).

The structures appear in SMILES notation. Bounds are passed on as bounds.

Data set [1] concerns activated beta-catenin proteins. In words: Western blotting of activated beta-catenin protein in colon cancer cell lines. The class given is cell-based, human. The conditions noted are these: COLO320DM and SW403, 10 μM, 24 hours. The source says: (§1) After protein extraction, proteins were quantified through Western blotting (Bio-Rad, USA).
Background: A western blot detects proteins with antibodies after separation by electrophoresis.

Another data set concerns the target T1, TNKS-2 (Homo sapiens, UniProt Q9H2K2).
T1 sequence (Q9H2K2 1-1166): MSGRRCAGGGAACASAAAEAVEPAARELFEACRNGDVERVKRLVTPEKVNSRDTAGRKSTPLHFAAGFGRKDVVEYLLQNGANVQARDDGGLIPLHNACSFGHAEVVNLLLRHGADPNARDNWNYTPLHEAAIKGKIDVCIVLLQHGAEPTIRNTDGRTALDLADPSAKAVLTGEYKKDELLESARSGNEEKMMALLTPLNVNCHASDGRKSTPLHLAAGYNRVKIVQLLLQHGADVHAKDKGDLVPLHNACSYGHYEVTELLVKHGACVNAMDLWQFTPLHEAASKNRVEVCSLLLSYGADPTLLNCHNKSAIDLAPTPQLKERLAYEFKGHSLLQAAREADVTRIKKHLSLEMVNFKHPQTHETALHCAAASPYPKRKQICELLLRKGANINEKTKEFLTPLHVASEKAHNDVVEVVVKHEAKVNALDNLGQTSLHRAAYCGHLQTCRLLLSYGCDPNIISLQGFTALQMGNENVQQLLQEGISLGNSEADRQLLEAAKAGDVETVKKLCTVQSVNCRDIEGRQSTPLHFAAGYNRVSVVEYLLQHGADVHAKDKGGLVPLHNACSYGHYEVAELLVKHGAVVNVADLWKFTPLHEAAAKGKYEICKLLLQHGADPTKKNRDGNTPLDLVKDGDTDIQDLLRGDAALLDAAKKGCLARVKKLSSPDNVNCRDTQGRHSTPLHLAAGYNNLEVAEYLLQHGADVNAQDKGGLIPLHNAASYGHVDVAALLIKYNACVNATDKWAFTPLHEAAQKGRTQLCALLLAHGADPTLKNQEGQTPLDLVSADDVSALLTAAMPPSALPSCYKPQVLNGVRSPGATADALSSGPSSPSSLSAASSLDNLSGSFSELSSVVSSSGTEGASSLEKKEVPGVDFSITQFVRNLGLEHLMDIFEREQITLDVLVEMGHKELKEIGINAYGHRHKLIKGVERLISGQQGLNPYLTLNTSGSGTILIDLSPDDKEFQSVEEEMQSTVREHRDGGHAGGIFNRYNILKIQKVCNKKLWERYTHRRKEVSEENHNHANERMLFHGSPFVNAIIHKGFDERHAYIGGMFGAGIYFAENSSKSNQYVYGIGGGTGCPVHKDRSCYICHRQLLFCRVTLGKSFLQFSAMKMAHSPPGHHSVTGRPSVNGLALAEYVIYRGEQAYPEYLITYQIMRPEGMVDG
Description: TNKS-2 enzymatic activity inhibition. The class given is biochemical.

A further data set deals with AXIN2 protein. In words: Western blotting of AXIN2 protein in colon cancer cell lines. Format: cell-based, human. The conditions noted are these: COLO320DM and SW403, 10 μM, 24 hours.
From the text: as §1

In another data set the target is T2, PARP-1 (Homo sapiens, UniProt P09874).
T2 construct: purchased BPS Bioscience 80580
In words: PARP-1 colorimetric activity assay kit. The note with it: for inhibition of enzymatic activity of PARP-1 (in words): 1 μM. The class given is biochemical.

Another data set concerns the target PARP-2 (Homo sapiens, UniProt Q9UGN5). In words: PARP-2 enzymatic activity inhibition. The class given is biochemical.
A further data set addresses T3, TNKS-1 (Homo sapiens, UniProt O95271).
T3 construct: purchased BPS Bioscience 80582
T3 sequence (O95271 1-1327): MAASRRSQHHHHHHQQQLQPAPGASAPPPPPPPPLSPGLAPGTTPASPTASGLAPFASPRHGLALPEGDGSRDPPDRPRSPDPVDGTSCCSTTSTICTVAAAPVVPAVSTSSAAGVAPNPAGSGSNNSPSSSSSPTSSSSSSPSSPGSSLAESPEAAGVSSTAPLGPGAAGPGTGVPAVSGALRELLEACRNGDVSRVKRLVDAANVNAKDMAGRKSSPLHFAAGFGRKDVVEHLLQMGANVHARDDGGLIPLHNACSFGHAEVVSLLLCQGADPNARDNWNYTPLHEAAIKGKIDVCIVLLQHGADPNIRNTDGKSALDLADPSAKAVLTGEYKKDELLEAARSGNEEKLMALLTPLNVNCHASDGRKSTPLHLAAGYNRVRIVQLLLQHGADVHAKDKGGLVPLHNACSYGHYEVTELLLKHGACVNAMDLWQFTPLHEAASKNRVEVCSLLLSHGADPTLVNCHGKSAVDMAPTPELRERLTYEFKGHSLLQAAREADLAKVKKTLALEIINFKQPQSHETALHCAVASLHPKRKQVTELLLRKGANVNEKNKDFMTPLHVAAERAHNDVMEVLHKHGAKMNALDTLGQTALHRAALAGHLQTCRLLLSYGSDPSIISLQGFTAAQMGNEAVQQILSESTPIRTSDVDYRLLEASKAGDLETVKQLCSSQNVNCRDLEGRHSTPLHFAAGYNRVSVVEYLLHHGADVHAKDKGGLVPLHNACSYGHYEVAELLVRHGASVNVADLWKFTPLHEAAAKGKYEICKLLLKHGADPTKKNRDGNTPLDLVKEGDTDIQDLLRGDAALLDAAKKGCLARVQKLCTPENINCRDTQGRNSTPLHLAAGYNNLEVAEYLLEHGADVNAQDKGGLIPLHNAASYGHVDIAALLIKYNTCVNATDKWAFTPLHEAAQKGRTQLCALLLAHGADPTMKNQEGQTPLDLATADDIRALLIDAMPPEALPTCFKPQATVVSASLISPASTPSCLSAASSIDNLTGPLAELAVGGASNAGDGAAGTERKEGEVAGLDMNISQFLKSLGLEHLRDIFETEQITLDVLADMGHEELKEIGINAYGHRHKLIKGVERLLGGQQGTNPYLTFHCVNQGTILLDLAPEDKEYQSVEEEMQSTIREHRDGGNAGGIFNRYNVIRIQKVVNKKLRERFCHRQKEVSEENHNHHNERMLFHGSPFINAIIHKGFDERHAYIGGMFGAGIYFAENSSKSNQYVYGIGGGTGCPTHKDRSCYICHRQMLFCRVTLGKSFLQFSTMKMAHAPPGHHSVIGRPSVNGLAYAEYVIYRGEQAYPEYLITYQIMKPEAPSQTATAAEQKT
In words: TNKS1 Histone Ribosylation Colorimetric Assay Kit (tankyrase-1 colorimetric activity assay). The conditions noted are these: for inhibition at 10 µM: read-out: TNKS-1 inhibitory activity (10 μM), 10 μM compound. Format: biochemical.

The subject of data set [2] is colon cancer cell line COLO320DM. Description: Cell viability by colony counting (methylene blue staining). The note with it: 10 days; for cell viability (in words): 2.5 μM to 40 μM; for cell viability inhibited: 40 μM.
Data set [3] concerns beta-catenin transcriptional activity. In words: TCF/luciferase assay of beta-catenin transcriptional activity in HEK cells. Format: cell-based. The conditions noted are these: Homo sapiens, HEK293, read-out: β-catenin IC50 in HEK cells. How it is done:
To determine whether beta-catenin transcriptional activity is inhibited by the aryl-piperidine derivative compounds, compounds TI-61815 and TI-61910 were treated at various concentrations and examined in HEK cells using the TCF/luciferase assay system.

Data set [4] deals with beta-catenin subgenes (AXIN2, CCND1, cMYC, FGF20). In words: Real-time PCR of beta-catenin subgene expression. The note with it: COLO320DM, 10 μM, 24 hours. The class given is cell-based, human. The source says:
After RNA extraction, cDNA was synthesized to quantify gene expression via real-time PCR.
For orientation: In qPCR the cycle at which signal appears reflects the starting amount.

The subject of data set [5] is colon cancer cell line COLO320DM. Description: Cell viability by colony counting after co-treatment with 5-FU. Format: cell-based. The note with it: Homo sapiens, COLO 320DM, 240 h, 10 days, read-out: cell viability inhibited when co-treated with 5-FU, compared to the sole treatment; for cytotoxicity at 5 µM: 5 μM compound + 0.5 μM 5-FU; for cytotoxicity at 10 µM: 10 μM compound + 0.5 μM 5-FU. The procedure: Each cell line was purchased from the American Type Culture Collection (ATCC) and cultured respectively in RPMI 1640 (Roswell Park Memorial Institute 1640) medium supplemented with 10% fetal bovine serum (FBS), 100 μg/ml streptomycin, and 100 units/ml penicillin in the presence of 5% CO2 at 37° C.
Afterwards, the cell viability was identified by counting the number of colonies by staining with 1.5% methylene blue.

T2 sequence (P09874 whole entry): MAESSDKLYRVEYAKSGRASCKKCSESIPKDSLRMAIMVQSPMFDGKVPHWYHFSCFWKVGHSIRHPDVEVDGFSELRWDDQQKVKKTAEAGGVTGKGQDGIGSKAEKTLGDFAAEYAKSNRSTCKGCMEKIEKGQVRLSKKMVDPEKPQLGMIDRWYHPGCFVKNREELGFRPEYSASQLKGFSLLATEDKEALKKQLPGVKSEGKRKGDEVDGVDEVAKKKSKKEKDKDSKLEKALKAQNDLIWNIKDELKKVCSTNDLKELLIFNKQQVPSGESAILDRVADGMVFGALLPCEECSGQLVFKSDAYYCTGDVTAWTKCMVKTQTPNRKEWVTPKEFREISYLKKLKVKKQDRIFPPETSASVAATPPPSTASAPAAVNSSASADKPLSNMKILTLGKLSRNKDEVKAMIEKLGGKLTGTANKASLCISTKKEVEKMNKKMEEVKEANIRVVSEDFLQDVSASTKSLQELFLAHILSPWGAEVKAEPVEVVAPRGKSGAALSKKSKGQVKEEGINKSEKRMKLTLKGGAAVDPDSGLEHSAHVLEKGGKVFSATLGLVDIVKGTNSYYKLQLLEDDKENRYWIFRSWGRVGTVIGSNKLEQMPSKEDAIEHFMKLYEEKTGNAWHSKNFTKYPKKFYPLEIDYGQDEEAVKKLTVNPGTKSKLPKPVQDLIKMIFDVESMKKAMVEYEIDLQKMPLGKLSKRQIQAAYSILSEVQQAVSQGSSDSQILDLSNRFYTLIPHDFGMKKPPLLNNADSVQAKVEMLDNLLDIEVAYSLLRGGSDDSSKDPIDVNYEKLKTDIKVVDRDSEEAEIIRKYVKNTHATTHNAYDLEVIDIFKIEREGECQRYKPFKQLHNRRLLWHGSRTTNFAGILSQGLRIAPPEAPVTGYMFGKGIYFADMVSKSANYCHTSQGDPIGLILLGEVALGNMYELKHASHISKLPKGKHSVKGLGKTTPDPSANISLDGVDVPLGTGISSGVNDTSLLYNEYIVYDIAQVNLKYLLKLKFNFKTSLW
PARP-2, sequence (Q9UGN5 whole entry): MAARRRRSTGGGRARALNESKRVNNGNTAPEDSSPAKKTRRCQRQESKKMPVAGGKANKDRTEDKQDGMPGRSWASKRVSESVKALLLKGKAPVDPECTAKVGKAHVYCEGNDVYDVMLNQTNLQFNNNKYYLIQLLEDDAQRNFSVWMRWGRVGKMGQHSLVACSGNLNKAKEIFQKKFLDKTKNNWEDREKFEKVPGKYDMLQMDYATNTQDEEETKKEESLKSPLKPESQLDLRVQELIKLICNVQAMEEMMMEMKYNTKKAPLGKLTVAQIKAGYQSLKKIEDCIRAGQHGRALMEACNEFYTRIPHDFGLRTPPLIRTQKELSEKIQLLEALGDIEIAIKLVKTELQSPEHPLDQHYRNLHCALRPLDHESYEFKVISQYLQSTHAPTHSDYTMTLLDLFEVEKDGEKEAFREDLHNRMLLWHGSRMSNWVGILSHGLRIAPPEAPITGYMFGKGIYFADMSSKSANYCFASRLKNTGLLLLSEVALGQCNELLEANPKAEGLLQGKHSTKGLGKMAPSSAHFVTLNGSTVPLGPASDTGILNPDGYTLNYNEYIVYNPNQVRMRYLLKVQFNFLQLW

What is called IC50 is the midpoint of a concentration-inhibition curve. As for `N#Cc1ccccc1N1CCC(CC(=O)Nc2nnc3ccccn23)CC1` [TI-61815, N-([1,2,4]triazolo[4,3-a]pyridin-3-yl)-2-(1-(2-cyanophenyl)piperidin-4-yl)acetamide], the “levels of the activated beta-catenin proteins” value in data set [1] was “inhibited levels of the activated beta-catenin proteins”. Also, the IC50 against TNKS-2 is 49 nM; against PARP-1 it was 7540 nM; against PARP-2 it was 6060 nM; against TNKS-1 it was 64 nM; in [3], 830 nM. In addition, the AXIN2 protein levels result in the data set with AXIN2 protein is recorded as “stabilization of AXIN2 protein levels”. For the same molecule, on PARP-1, the “inhibition of enzymatic activity of PARP-1 (in words)” value is listed as “almost no decrease in the inhibition of enzymatic activity of PARP-1”. Further, the inhibition at 10 µM on TNKS-1 was at least 95%. In addition, the “cell viability (in words)” value in data set [2] is reported as “decreased in a concentration-dependent manner”. In data set [2], this molecule returned a cell viability inhibited of 61.4%. Moreover, in [4], the “expression levels of beta-catenin subgenes (AXIN2, CCND1, cMYC, FGF20)” value is reported as “inhibited the expression levels of beta-catenin subgenes”. Further, in data set [5], the cytotoxicity at 5 µM worked out at 12.4%. Moreover, in data set [5], the cytotoxicity at 10 µM is 27.8%.

In the case of `N#Cc1ccccc1N1CCC(CCC(=O)Nc2nnc3ccccn23)CC1` [TI-61910, N-([1,2,4]triazolo[4,3-a]pyridin-3-yl)-3-(1-(2-cyanophenyl)piperidin-4-yl)propanamide], the “levels of the activated beta-catenin proteins” value in data set [1] is reported as “inhibited levels of the activated beta-catenin proteins”. The molecule also registered a half-maximal inhibitory concentration (IC50) at TNKS-2 of 4 nM. In addition, the AXIN2 protein levels entry in the data set on AXIN2 protein is “stabilization of AXIN2 protein levels”. Also, at PARP-1, the IC50 is over 10000 nM and the “inhibition of enzymatic activity of PARP-1 (in words)” value was “almost no decrease in the inhibition of enzymatic activity of PARP-1”. Moreover, the IC50 on PARP-2 is over 10000 nM. Moreover, on TNKS-1, the IC50 worked out at 18 nM and the inhibition at 10 µM was at least 95%. Also, in data set [2], the “cell viability (in words)” value is recorded as “decreased in a concentration-dependent manner” and the cell viability inhibited was 60.8%. The IC50 in data set [3] stood at 490 nM. The “expression levels of beta-catenin subgenes (AXIN2, CCND1, cMYC, FGF20)” value in data set [4] is given as “inhibited the expression levels of beta-catenin subgenes”. Moreover, the cytotoxicity at 2.5 µM in data set [5] (2.5 μM compound + 0.5 μM 5-FU) worked out at 26%. In [5], the cytotoxicity at 5 µM is 28.3% and the cytotoxicity at 10 µM was determined as 35.5%.
